Test results as given in patent publication US20140011814A1, “DIAMINE AND MEGLUMINE SALT FORMS OF FATTY ACIDS” (THETIS PHARMACEUTICALS LLC, priority 2012, published 2014).

Assay: Rat oral pharmacokinetics (plasma analyzed for eicosapentaenoic acid)
Conditions: analyte EPA in plasma, oral gavage 40 mg/kg as aqueous solution in 0.5% carboxymethyl cellulose, Sprague-Dawley rats, mean of 6 rats; for AUC (0-24): 0-24 h

CC/C=C\C/C=C\C/C=C\C/C=C\C/C=C\CCCC(=O)O.CC/C=C\C/C=C\C/C=C\C/C=C\C/C=C\CCCC(=O)O.NCCN [Ethylene diamine di-eicosapentaenoate, Ethane-1,2-diaminium di[5Z,8Z,11Z,14Z,17Z)-icosa-5,8,11,14,17-pentaenoate]]
AUC (0-24): 275.29 µg·h/mL | Cmax: 18370 ng/mL | Tmax: 2.0 h

C1CNCCN1.CC/C=C\C/C=C\C/C=C\C/C=C\C/C=C\CCCC(=O)O.CC/C=C\C/C=C\C/C=C\C/C=C\C/C=C\CCCC(=O)O [Piperazine di-eicosapentaenoate, Bis[5Z,8Z,11Z,14Z,17Z)-icosa-5,8,11,14,17-pentaenoate]piperazine salt]
AUC (0-24): 134.85 µg·h/mL | Cmax: 28220 ng/mL | Tmax: 1.0 h
